In ChEMBL document CHEMBL1150795, “Sultam thiourea inhibition of West Nile virus” (Antimicrob Agents Chemother, 2007):
Active and inactive are the calls of the source. The calls are words filed in the database; no cut-off is given here.

What was measured:
[1] = tested on: Human immunodeficiency virus 1; experiment: Antiviral activity against HIV1 in 293 cells assessed as reduction of viral replicon after 48 hrs by luciferase based reporter gene assay relative to control; type: functional, organism-based; settings: HEK293
Prospect Hill virus = experiment: Antiviral activity against Prospect Hill Hantavirus; type: functional, organism-based; settings: Orthohantavirus prospectense
West Nile virus [2] = experiment: Antiviral activity against West Nile virus NY 1999 infected in african green monkey Vero cells assessed as reduction of virus yield after 5 days post infection at 2.3 uM relative to control; type: functional
West Nile virus [3] = experiment: Antiviral activity against West Nile virus NY 1999 infected in african green monkey Vero cells assessed as reduction of viral RNA level by RT-PCR relative to control; type: functional
Human adenovirus 5 = experiment: Antiviral activity against human adenovirus 5; type: functional, organism-based
West Nile virus [4] = experiment: Antiviral activity against West Nile virus NY 1999 infected in african green monkey Vero cells assessed as reduction of viral E protein level by immunofluorescence method; type: functional, organism-based
Vero = experiment: Cytotoxicity against african green monkey Vero cells at 23 uM after 48 hrs by MTS method; type: cell-based; settings: chlorocebus sabaeus
[5] = Cytotoxicity against african green monkey Vero cells by trypan blue exclusion assay; type: cell-based; settings: chlorocebus sabaeus
West Nile virus [6] = experiment: Antiviral activity against West Nile virus NY 1999 infected in african green monkey Vero cells assessed as reduction of virus yield relative to control; type: functional, organism-based
[7] = tested on: Japanese encephalitis virus; experiment: Antiviral activity against Japanese encephalitis virus SA14-2-8 infected in african green monkey Vero cells assessed as reduction of virus yield relative to control; type: functional, organism-based
West Nile virus [8] = experiment: Antiviral activity against West Nile virus NY 1999 infected in african green monkey Vero cells assessed as reduction of virus yield administered 2 hrs postinfection; type: functional, organism-based
[9] = Cytotoxicity against african green monkey Vero cells after 48 hrs by MTS method; type: cell-based; settings: chlorocebus sabaeus
West Nile virus [10] = experiment: Antiviral activity against West Nile virus NY 1999 infected in african green monkey Vero cells assessed as reduction of viral E protein level by immunoblot method; type: functional, organism-based
West Nile virus [11] = experiment: Antiviral activity against West Nile virus in BHK cells assessed as reduction of viral replicon after 48 hrs by luciferase based reporter gene assay relative to control; type: functional
West Nile virus [12] = experiment: Antiviral activity against West Nile virus NY 1999 infected in african green monkey Vero cells assessed as reduction of virus yield after 5 days post infection at 23 uM relative to control; type: functional
[13] = tested on: Human immunodeficiency virus 1; experiment: Antiviral activity against HIV1; type: functional, organism-based
[14] = Selectivity index, ratio of CC50 for african green monkey Vero cells to EC50 for West Nile virus NY 1999; type: toxicity, cell-based; settings: read-out: Ratio CC50/EC50

Row | SMILES | Activity [1] | Activity (Prospect Hill virus) | fold change (FC) (West Nile virus [2]) | Activity (West Nile virus [3]) | Activity (Human adenovirus 5) | Activity (West Nile virus [4]) | Activity (Vero) | CC50 [5] | EC50 (West Nile virus [6]) | EC50 [7] | Activity (West Nile virus [8]) | CC50 at 48 h [9] | Activity (West Nile virus [10]) | fold change (FC) (West Nile virus [11]) | fold change (FC) (West Nile virus [12]) | Activity [13] | selectivity ratio [14]
1 | O=S1(=O)CS/C(=N\C(=S)N(c2ccccc2)c2ccccc2)N1c1ccccc1 | inactive | Active | 100 | >100 | Active | Active | Non-toxic | > 70 µM | 0.7 µM | 7 µM | Active | > 70 µM | Active | >20 | 100 | Active | > 100
2 | CC(C)N(C(=S)/N=C1\SC(C)S(=O)(=O)N1C)C(C)C (stereo unspecified) |  |  |  |  |  |  |  |  | 30 µM | 30 µM |  | 90 µM |  |  |  |  | 
3 | CC(C)N(C(=S)/N=C1\SCS(=O)(=O)N1c1ccccc1)C(C)C |  |  |  |  |  |  |  |  | 80 µM | 8 µM |  | > 80 µM |  |  |  |  | 
4 | O=S1(=O)CS/C(=N\C(=S)N(Cc2ccccc2)Cc2ccccc2)N1c1ccccc1 |  |  |  |  |  |  |  |  | 22 µM | 65 µM |  | 65 µM |  |  |  |  | 
